Assays:
[1] = system: iron-induced retinal autofluorescence and degeneration; assay: Iron-induced retinal autofluorescence and degeneration, cSLO and OCT imaging 1 week after intravitreal iron; format: in vivo, C57BL/6J mice
Method: To evaluate the protective effect of 0.25% D-DHA diet, confocal scanning laser ophthalmoscopy (cSLO) and optical coherence tomography (OCT) were employed for in vivo imaging at 1 week after injections. For the cSLO imaging, both blue autofluorescence (BAF) and near-infra autofluorescence (IRAF) were performed.
Adult male wild-type C57BL/6J mice (Stock No.000664, Jackson Labs, Bar Harbor, ME, USA) were housed in standard conditions under cyclic light (12 h:12 h light-dark cycle). Mice had ad libitum access to water and food. Beginning at 2 mo of age, mice were placed on the AIN93G diet described above, supplemented with 0.25% D-DHA or DHA (control diet) for 1 week, 2 weeks, 3 weeks, or 4 weeks prior to the intravitreal injection. Mice were given an intravitreal injection of 1 µl 0.5 mM ferric ammonium citrate diluted in 0.9% NaCl (saline) (MP Biomedicals LLC, Santa Ana, CA) or
1 µl of saline as control. Intravitreal injections were performed as previously described ^54. Mice were continued on respective diet until their final evaluation. All housing and procedures were performed according to the NIH Guide for the Care and Use of Experimental Animals and approved by the University of Pennsylvania Animal Care and Use Committee.
Mice were given general anesthesia and placed on a platform. Pupils were dilated with 1% tropicamide saline solution (Akorn, Inc., Lake Forest, IL). Optical coherence tomography (OCT) imaging was performed for visualization of the retinal structure by using a Bioptigen
Envisu (R2200, Bioptigen Inc., Durham, NC, USA) coupled to a broadband LED light source (T870-HP, Superlum Diodes, Ltd, Ireland). Confocal scanning laser ophthalmoscopy (cSLO) (Spectralis HRA, Heidelberg Engineering, Franklin, MA, USA) was used for visualization of retinal AF using BluePeak™ or simply blue AF (488 nm excitation) and near-infrared AF (787 nm excitation) imaging modes.

[2] = Ocular D-DHA accretion and elimination (0.5% D-DHA diet 77 days, DHA wash-out 73 days); format: in vivo, C57BL/6J mice
Excerpt: To determine the pharmacokinetics of ocular D-DHA uptake, incorporation and elimination from the neural retina and RPE/choroid/sclera, twelve-week-old C57BL/6J mice were fed a 0.5% D-DHA containing diet (0.5 g D-DHA/100 g food, Table 3) for 77 days followed by an additional 73-day wash-out phase with DHA. At 4 weeks, >55% of the DHA in the retina was D-DHA rising to >60% at 5 weeks (FIG. 6A). At similar time points, D-DHA in the RPE/choroid/sclera was >80%. […] Based on the accretion and elimination data, two-month-old mice were fed with diets containing either D-DHA or natural DHA control for 1 week, 2 weeks, 3 weeks, and 4 weeks before the IVT injection of iron and saline control (FIG. 6B). In order to better approximate typical DHA doses in human prescription omega-3 supplements (e.g. 1,500 mg/day DHA in Lovaza), the D-DHA and DHA experimental mouse diets were adjusted to 0.25% instead of 0.5% for most of the study. On a 0.25% D-DHA diet, retinal D-DHA levels exceeded 50% at five weeks (52.2±1.5% and 55% of total DHA by our GC- and LC- based MS methods, respectively), regardless of whether eyes were injected with iron or control saline (Table 3).
Eleven-week-old C57BL/6J mice were purchased from Jackson Laboratory (Bar Harbor, ME) and housed in 20-25 lux light conditions under 12 h day/night cycle in the Dean McGee Eye Institute Animal Research Facility at the University of Oklahoma Health Sciences Center, Oklahoma City, OK. One week after acclimatization to the vivarium with ad libitum access to laboratory rodent chow and water the animals were assigned to experimental groups. To determine ocular D-DHA accretion, the mice were switched from the laboratory rodent diet to the experimental D-DHA supplemented diet containing 0.5% D-DHA plus 6.5% high oleic soybean oil (w/w) in AIN93G^51 (Research Diet, Inc. New Brunswick, NJ). The diets were vacuum packaged and stored at - 20° C. Food was replaced three times a week with fresh food ad libitum that is stored in 4° C. after it is taken from - 20° C. Based on previous estimated retina accretion kinetics, retina, optic nerve and eye cups containing sclera, retinal pigment epithelium-choroid (RPE-choroid) were dissected from 6 mice (3 females and 3 males) at different time points during eleven weeks of D-DHA feeding. The tissues were snap frozen in liquid nitrogen, and stored in -80° C. until fatty acid analyses. After eleven weeks (77 days) on D-DHA diet, the animals were switched to the washout diet containing 0.5% DHA plus 6.5% high oleic soybean oil (w/w) in AIN93G and maintained on this diet until euthanasia at three different time points up to 73 days, when tissues were harvested for fatty acid analysis. All animal procedures were approved by the University of Oklahoma Health Sciences Center Institutional Animal Care and Use Committee.
Three types of mass spectrometric analysis were performed to confirm repeatability of results. In the first, lipids were extracted from retinas by a modified Folch method (CHCl3/CH3OH, 2:1). derivatized to fatty acid methyl esters (FAME), and analyzed by high resolution capillary gas chromatography and specialized chemical ionization tandem mass spectrometry. Baseline resolved DHA and D-DHA total ion signal were integrated, and the proportions of D-DHA/total DHA were calculated. […] Lipids were extracted and saponified, and analyzed by ESI-LC/MS on a 4000 QTrap (Sciex) operating in enhanced negative mode over an m/z range of 320 - 345 and a scan rate of 250 /sec. […]

retinal function = assay: Electroretinography; format: in vivo, C57BL/6J mice
Method: Electroretinography was conducted on mice fed with D-DHA or natural DHA for 4 weeks to evaluate retinal function. […] Thus, using this measure, incorporation of D-DHA had no impact on retinal function (FIG. 7A). […] Toluidine blue staining was performed on plastic sections to examine retinal histology.
Mice were dark adapted overnight and anesthetized with the same procedure. The electroretinograms were recorded with an Espion E3 system (Diagnosys LLC, Lowell, MA) with a ganzfeld Color Dome stimulator as previously described. All electroretinography were performed at the same time of day.

[3] = system: lipid peroxidation in a lipid membrane; details: present at 1% fraction of the total PUFAs in a lipid membrane in vitro; cited from earlier work

[2H]C([2H])(/C=C\CC)/C=C\C([2H])([2H])/C=C\C([2H])([2H])/C=C\C([2H])([2H])/C=C\C([2H])([2H])/C=C\CCC(=O)OCC [D-DHA, 6,6,9,9,12,12,15,15,18,18-D10-(4Z,7Z,10Z,13Z,16Z, 19Z)-docosa 4,7,10,13,16, 19-hexaenoic acid ethyl ester]
iron induced retinal AF (BAF and IRAF cSLO images) ([1]; 0.25% D-DHA diet for 1, 2, 3 and 4 weeks before iron injection, 1 week after injection): dose-dependent reduction | protective effects (reduction of AF area) ([1]; at >30% retinal D-DHA substitution levels): > 50% | retinal structure in OCT scans ([1]; fed D-DHA for 4 weeks, 1 week after iron injection): complete protection | protection against iron-induced retinal damage ([1]; fed D-DHA for 4 weeks, >50% substitution in neural retina): nearly complete protection | % of the DHA in the retina that was D-DHA ([2]; 0.5% D-DHA diet, 4 weeks): > 55% | % of the DHA in the retina that was D-DHA ([2]; 0.5% D-DHA diet, 5 weeks): > 60% | D-DHA in the RPE/choroid/sclera ([2]; 0.5% D-DHA diet, similar time points (4-5 weeks)): > 80% | washout in the RPE/choroid/sclera ([2]; DHA wash-out diet, compared with retina): more rapid than retina | uptake and elimination kinetics ([2]; neural retina and RPE/choroid/sclera): classic first order kinetics | rod-b wave, rod-a wave and cone-b wave amplitudes (retinal function; 4 weeks diet, mice not given IVT injections, compared to natural DHA): no significant difference | rod b-wave, rod a-wave and cone-b wave amplitudes (retinal function; iron injected eyes, ≥50% retinal D-DHA, 1 week after injection, compared to DHA plus iron): marked protection | inhibition of LPO in liposomes [3]: efficiently inhibited the LPO
